# In patent US10940139B2, “Compounds that interact with the Ras superfamily for the treatment of cancers, inflammatory diseases, rasopathies, and fibrotic disease” (Shy Therapeutics LLC, priority 2017, dated 2021):
# System: MIA-PACA2 pancreatic cancer cell lines
# Experiment: Cell proliferation assay, alternate assay conditions (DAPI fluorescence)
# Assay type: cell-based
# Conditions: Homo sapiens, MIA PaCa-2; * = tested at 10 μM, alternate conditions, MIA-PACA2
# Description: Cell lines: Tumor-derived pancreatic cancer cell lines MIA-PACA2 were purchased from ATCC and grown in complete DMEM-High Glucose medium supplemented with penicillin (100 U/mL), streptomycin (100 μg/mL), and 10% heat-inactivated FBS at 37° C. in a humidified incubator with 5% CO2.
# Method: Cells are plated at 4000 cells/well density in 96-wells plate. The next day tested small molecules are added to the cells in the final concentration of 10 μM in the presence of 0.3% DMSO and 10% FBS. After small molecules addition, cells are incubated for 4 days at 37° C. in a humidified incubator with 5% CO2. For IC50 value determination, serial dilutions of compounds were added to cells under the same conditions.
# Assay: At the end of the incubation period, cell cultures are fixed with a 50-50 mixture (v/v) acetone-methanol for 10 minutes at −20° C., followed by rehydration in PBS for 10 minutes at room temperature. After rehydration, cells are stained with DAPI (1 μg/ml) in PBS for 10 minutes at room temperature, followed by 3 washes with PBS. After staining, DAPI fluorescence is recorded (358 nm excitation/461 nm emission) with the 96-well plate reader Molecular Devices Spectramax M3; degree of small mole-cule-dependent proliferation inhibition is calculated from raw data assuming No Serum cells value as 100%.
row,Structure (SMILES),inhibition at 10 µM [%]
1,COc1nc(-c2ccccn2)nc2c1c(-c1ccccc1)nn2-c1ccccn1 [drawing 1842],76 to 100
2,Nc1nc(-c2ccccn2)nc(C(=O)NCCc2ccncc2)c1Oc1ccccc1 [drawing 1853],76 to 100
3,COCCNc1nc(-c2nccn2C)nc2sc(C3CCOCC3)c(-c3ccccc3)c12 [drawing 1892],76 to 100
4,Oc1nc(-c2ccccn2)nc2c(C3CC3)csc12 [drawing 1820],76 to 100
5,CCC(C)Nc1nc(-c2ccccn2)nc2sc(-c3ccncc3)c(-c3ccccc3)c12 (stereo not drawn),51 to 75
6,Cc1sc2c(O)nc(-c3ccccn3)nc2c1-c1ccccc1Cl [drawing 1817],76 to 100
7,COCCNc1nc(-c2cn(C)cn2)nc2sc(-c3ccncc3)c(-c3ccccc3)c12 [drawing 1832],76 to 100
8,Cn1ccnc1-c1nc(NCCOC2CC2)c2c(-c3ccccc3)c(-c3ccccc3)sc2n1 [drawing 1878],76 to 100
9,CC(C)Oc1ccc(-c2c(-c3ccccc3)sc3c(O)nc(-c4nccn4C)nc23)cc1F [drawing 1913],76 to 100
10,COC(=O)c1nc(-c2ccccn2)nc(O)c1O [drawing 1849],25 to 50
11,COCCNc1nc(-c2nccn2C)nc2sc(-c3ccncc3)c(-c3ccccc3)c12 [drawing 1884],76 to 100
12,Cc1sc2c(O)nc(-c3ccccn3)nc2c1C(=O)N1CCN(c2ccccc2)CC1C (stereo not drawn) [drawing 1808],76 to 100
13,Cc1sc2c(O)nc(-c3nccn3C)nc2c1-c1cccc(C(F)(F)F)c1 [drawing 1901],76 to 100
14,Oc1nc(-c2ncccn2)nc2c(-c3cccc(C(F)(F)F)c3)csc12 [drawing 1910],76 to 100
15,COc1ccc(CCC(=O)Nc2nc(-c3ccccn3)nc3sccc23)cn1 [drawing 1805],76 to 100
16,COc1cnc(CNC(=O)c2c(C)sc3c(O)nc(-c4ccccn4)nc23)[nH]c1=O [drawing 1825],0
17,Cn1cnc(-c2nc(O)c3c(-c4ccccc4)c(-c4ccc(CNC(=O)OC(C)(C)C)cc4)sc3n2)c1 [drawing 1839],25 to 50
18,CC(C)c1nn(C)cc1-c1csc2c(O)nc(-c3ccccn3)nc12 [drawing 1797],76 to 100
19,Oc1nc(-c2ccccn2)nc2cc(-c3cccc(Br)c3)sc12 [drawing 1866],76 to 100
20,Cc1sc2c(O)nc(-c3nccn3C)nc2c1-c1ccc(OCC(C)C)nc1 [drawing 1902],76 to 100
21,Cc1c(-c2csc3c(O)nc(-c4ccccn4)nc23)cnn1C [drawing 1802],76 to 100
22,Oc1nc(-c2ccncn2)nc2c(-c3cccc(C(F)(F)F)c3)csc12 [drawing 1909],76 to 100
23,COCCNc1nc(-c2cn(C)cn2)nc2sc(-c3ccccc3)c(-c3ccccc3)c12 [drawing 1885],76 to 100
24,CC(C)OCCNc1nc(-c2nccn2C)nc2sc(-c3ccccc3)c(-c3ccccc3)c12 [drawing 1869],76 to 100
25,Cc1sc2c(O)nc(-c3ccccn3)nc2c1C(=O)N1CCN(c2ccccc2)CC1 [drawing 1807],76 to 100

row,Structure (SMILES),inhibition at 10 µM [%]
1,Oc1nc(-c2ccccn2)nc2cc(-c3ccncc3)sc12 [drawing 1863],76 to 100
2,COc1cnc(CNC(=O)c2cc3nc(-c4ccccn4)nc(O)c3s2)[nH]c1=O [drawing 1823],25 to 50
3,Cn1ccnc1-c1nc(O)c2scc(-c3ccccc3)c2n1 [drawing 1916],76 to 100
4,Oc1nc(-c2ccccn2)nc2c(-c3ccccc3)c(-c3ccncc3)sc12 [drawing 1850],76 to 100
5,N#Cc1cccc(-c2csc3c(O)nc(-c4ccccn4)nc23)c1 [drawing 1800],76 to 100
6,Nc1cccc(-c2csc3c(O)nc(-c4ccccn4)nc23)n1 [drawing 1816],76 to 100
7,COc1nc(-c2ccccn2)nc(Oc2cccc(C(F)(F)F)c2)c1O [drawing 1867],1 to 25
8,CN(C)CCOc1cccc(-c2csc3c(O)nc(-c4ccccn4)nc23)c1 [drawing 1798],76 to 100
9,Cc1sc2c(O)nc(-c3nccn3C)nc2c1-c1ccccc1 [drawing 1896],76 to 100
10,Oc1nc(-c2ccccn2)nc2c1c(-c1ccccc1)nn2-c1ccccn1 [drawing 1841],76 to 100
11,COc1nc(-c2cn(C)cn2)nc2sc(-c3ccncc3)c(-c3ccccc3)c12 [drawing 1833],76 to 100
12,Oc1nc(-c2ccccn2)nc2c(-c3cncc(C(F)F)c3)csc12 [drawing 1804],76 to 100
13,COc1nc(-c2ccccn2)nc(Oc2cccc(C(F)(F)F)c2)c1OC [drawing 1854],76 to 100
14,COc1cnc(-c2cnc[nH]2)nc1O [drawing 1818],0
15,OCC1(c2ccc(-c3nc(-c4ccccn4)nc(-c4ccc(C5(CO)CC5)cc4)c3Oc3ccccc3)cc2)CC1 [drawing 1834],76 to 100
16,CC(C)Cc1csc2c(O)nc(-c3ccccn3)nc12 [drawing 1813],76 to 100
17,CC(C)Oc1ccc(-c2csc3c(O)nc(-c4nccn4C)nc23)cc1F [drawing 1911],76 to 100
18,Oc1nc(-c2ccccn2)nc2c(CC3CCNC3)csc12 (stereo not drawn) [drawing 1828],0
19,O=C(NCCc1ccncn1)c1csc2nc(-c3ccccn3)nc(N3CCOCC3)c12 [drawing 1796],1 to 25
20,Cn1cnc(-c2nc(O)c3scc(-c4cccc(OC(F)(F)F)c4)c3n2)c1 [drawing 1908],76 to 100
21,CC(C)COc1ccc(-c2c(-c3ccccc3)sc3c(O)nc(-c4nccn4C)nc23)cn1 [drawing 1889],76 to 100
22,Cn1ccnc1-c1nc(NCCOC(F)(F)F)c2c(-c3ccccc3)c(-c3ccccc3)sc2n1 [drawing 1870],76 to 100
23,CCOCCOc1nc(-c2nccn2C)nc2sc(-c3ccccc3)c(-c3ccccc3)c12 [drawing 1874],76 to 100
24,CC(C)(C)c1sc2c(O)nc(-c3ccccn3)nc2c1Br [drawing 1856],76 to 100
25,Nc1nc(O)c2sc(-c3cccc(C(=O)NC4CCNC4=O)c3)cc2n1 (stereo not drawn) [drawing 1844],0

row,Structure (SMILES),inhibition at 10 µM [%]
1,COc1nc(-c2ccccn2)nc2c(-c3cccc(O)n3)csc12,76 to 100
2,O=C(c1csc2c(O)nc(-c3ccccn3)nc12)N1CCNC(c2ccc(Cl)cc2)C1 (stereo not drawn) [drawing 1827],76 to 100
3,Cn1ccnc1-c1nc(O)c2scc(-c3cccc(Cl)c3)c2n1 [drawing 1919],76 to 100
4,Cc1sc2c(O)nc(-c3nccn3C)nc2c1-c1ccc(F)cc1F [drawing 1923],76 to 100
5,COC(C)(C)c1ccc(-c2csc3c(O)nc(-c4nccn4C)nc23)cc1 [drawing 1920],76 to 100
6,OCC1(c2ccc(-c3nc(-c4ccccn4)nc(O)c3Oc3ccccc3)cc2)CC1 [drawing 1836],76 to 100
7,Cn1ccnc1-c1nc(O)c2scc(-c3cccc(OC(F)(F)F)c3)c2n1 [drawing 1905],76 to 100
8,Oc1nc(-c2ccccn2)nc2c(-c3cc(CN4CCCC4)ccc3F)csc12 [drawing 1799],76 to 100
9,Cc1sc2c(O)nc(-c3nccn3C)nc2c1-c1ccccc1Cl [drawing 1904],76 to 100
10,COc1c(O)nc(-c2ccccn2)nc1Oc1cccc(C(F)(F)F)c1 [drawing 1859],76 to 100
11,Oc1nc(-c2ccccn2)nc2c(C3CCCCC3)csc12 [drawing 1811],76 to 100
12,Nc1nc(O)c2sc(-c3cccc(C(=O)NCc4ncc[nH]4)c3)cc2n1 [drawing 1847],1 to 25
13,Cc1sc2c(O)nc(-c3ccccn3)nc2c1Br [drawing 1824],76 to 100
14,O=c1[nH]c(-c2ccccn2)nc2c([C@@H]3O[C@H](CO)[C@@H](O)[C@H]3O)csc12 [drawing 1829],76 to 100
15,Cc1sc2c(O)nc(-c3ccccn3)nc2c1C(=O)N1CCN(Cc2cccc(O)c2)CC1 [drawing 1809],25 to 50
16,COc1cnc(-c2nccn2C)nc1O [drawing 1815],51 to 75
17,Cn1cnc(-c2nc(O)c3scc(-c4cccc(C(F)(F)F)c4)c3n2)c1 [drawing 1906],76 to 100
18,COc1cnc(CNC(=O)c2sc3c(O)nc(-c4ccccn4)nc3c2C)[nH]c1=O [drawing 1826],0
19,COc1cnc(-c2cn(C)cn2)nc1O [drawing 1814],1 to 25
20,COc1ccc(-c2csc3c(O)nc(-c4nccn4C)nc23)cn1 [drawing 1915],76 to 100
21,COc1ccc(-c2c(-c3ccccc3)sc3c(O)nc(-c4nccn4C)nc23)cn1 [drawing 1895],76 to 100
22,COc1ccc(COC[C@H]2O[C@@H](c3csc4c(=O)[nH]c(-c5ccccn5)nc34)[C@H](O)[C@@H]2O)cc1 [drawing 1835],1 to 25
23,COC(=O)c1c(C)sc2c(O)nc(-c3ccccn3)nc12 [drawing 1810],25 to 50
24,CC(CO)Nc1nc(-c2nccn2C)nc2sc(-c3ccccc3)c(-c3ccccc3)c12 (stereo not drawn) [drawing 1880],76 to 100

# Same assay, conditions: Homo sapiens, MIA PaCa-2; MIA-PACA2, same assay as the % inhibition (alternate conditions)
row,IC50 [nM],Structure (SMILES)
1,100 to 500,Cc1sc2c(O)nc(-c3nccn3C)nc2c1-c1cccc(C(F)(F)F)c1 [drawing 1901]
2,> 1000,Oc1nc(-c2ccncn2)nc2c(-c3cccc(C(F)(F)F)c3)csc12 [drawing 1909]
3,> 1000,COCCNc1nc(-c2cn(C)cn2)nc2sc(-c3ccccc3)c(-c3ccccc3)c12 [drawing 1885]
4,100 to 500,CC(C)COc1ccc(-c2c(-c3ccccc3)sc3c(O)nc(-c4nccn4C)nc23)cn1 [drawing 1889]
5,100 to 500,Cn1ccnc1-c1nc(O)c2scc(-c3cccc(OC(F)(F)F)c3)c2n1 [drawing 1905]
6,100 to 500,Cc1sc2c(O)nc(-c3nccn3C)nc2c1-c1ccccc1Cl [drawing 1904]
7,501 to 1000,COc1ccc(-c2c(-c3ccccc3)sc3c(O)nc(-c4nccn4C)nc23)cn1 [drawing 1895]
